Laboratory results reported in patent US20110124723A1, “Compounds for Preventing and Treating Plasmodium Infections” (UNIVERSITE PIERRE ET MARIE CURIE (PARIS 6), priority 2007, published 2011).
Counter-ions that a name gives are not always drawn.

Legend:
[1] = test system: P. yoelii sporozoites (265 BY strain); assay: Challenge of mice with P. yoelii sporozoites, parasitemia in blood smears; format: in vivo; details: Swiss mice, 5,000 sporozoites IV; for reduction of parasitemia with respect to controls: after 12 days
Experimental: All animal were kept and used in accordance with institutional guidelines and European regulations. Female 6-week-old Swiss mice (René Janvier, Le Genest-Saint-Isle, France) weighing 24-31 g were randomly allotted to all groups.
The drugs tested were administered intra-peritoneally (IP). Monensin (MN) (Monensin A sodium salt, ref. M5273, Sigma) was diluted in PBS-methanol 2% and Nigericin (NG) (Nigericin sodium salt, ref. N7143, Sigma), another polyether ionophore antibiotic, in PBS-DMSO 2%.
The drugs were administrated on days −1, 0, +1, +2 (+40 h), and the mice challenged on day 0 by intravenous injection of 5,000 P. yoelii sporozoites (265 BY strain).
Group 1 received 25 mg/kg/day of MN and group 2 received PBS-methanol 2%. These groups received the drug and the solvent from day −1. Group 3 received 25 mg/kg/day of MN and group 4 received PBS-methanol 2% from day 0 post-infection. Group 5 received 35 mg/kg/day of NG and group 6 received PBS-DMSO 2% from day −1. Group 7 and 8 received 35 mg/kg/day of NG and PBS-DMSO 2% respectively from day 0 post-infection.
All groups were challenged with 5,000 sporozoites at day 0. Parasites were enumerated by blinded microscopic examination of Giemsa-stained tail-blood smears collected at day 3 until day 9, day 12 and day 15 post-infection. A mouse was considered negative when no parasites could be observed in 20,000 red blood cells (50 fields under a 50× light microscope objective) on any day during the period of observation.

[2] = test system: pre-erythrocytic development stage of P. yoelii; assay: Real-time PCR quantification of the liver stage parasite burden; format: in vivo; details: mice, 25 mg/kg IP on days 0 and +1; 2.5×10^5 sporozoites IV; liver 40 h post-infection
Experimental: MN was administered IP on days 0 and day +1. Group 1 received 25 mg/kg of MN, whereas the control groups received the MN solvent (PBS-Methanol 2%). Mice were then challenged on day 0 by intra-venous injection with 2.5×10^5 P. yoelii sporozoites and sacrificed 40 h post-infection.
A piece of liver (0.2 g) was harvested and total RNA extracted using the Micro to Midi Kit (Invitrogen, France) according to the manufacturer's instructions and treated with Dnase Turbo DNA free (Ambion, France). Five micrograms of total RNA was reverse transcribed by Superscript II (Invitrogen) and an equivalent of 100 ng RNA was used for each TaqMan® PCR reactions on a MX4000 multiplex quantitative PCR system (Stratagene, France).
Mouse β-actin primers (forward […] (SEQ ID NO: 4), reverse […] (SEQ ID NO: 5); Invitrogen) and probe (HEX-[…]-BHQ2 (SEQ ID NO: 6); MWG biotech) were used for normalisation.
P. yoelii 18S rRNA and mouse β-actin PCR fragments were cloned into plasmids and used in a 10-fold dilution series to determine a standard curve.
Absolute transcript copy number for each gene was calculated based on the external standard curve. Quantitative parasite burden was expressed as the ratio between absolute copy numbers of P. yoelii 18S ribosomal cDNA and mouse β-actin cDNA to account for experimental differences. TaqMan® test sample and plasmid standards were done in quadruplet.

P. yoelii sporozoites [3] = assay: Invasion assay, first experiment: pre-treatment of sporozoites, then hepatocytes, EEF count; format: cell-based; details: washed, 48 h with hepatocytes
Experimental: Two experiments were performed.
The first experiment consisted in pre-treatment of P. yoelii sporozoites with MN at 5 pM, 0.5 μM, or 5 μM, for 1 h at room temperature then washed and added to hepatocytes. Sporozoites controls were pre-treated with medium alone and incubated 1 h at room temperature in the same conditions. Parasites were then incubated with hepatocytes for 48 h at 37° C. in 5% CO2, stained, and examined microscopically to determine the quantity of exo-erythrocytic forms (EEF) (Basco et al., 1999; Mahmoudi et al., 2003).

P. yoelii blood stage = assay: Blood stage infection of mice with P. yoelii-infected red blood cells; format: in vivo; details: 25 mg/kg at day-3, day-2, day-1 before infection
Experimental: Two groups of mice were treated at day-3, day-2 and day-1 before infection with MN (25 mg/kg) or solvent (PBS-Methanol-2%). At day 0 the mice were inoculated IP with 4×10^5 P. yoelii-infected red blood cells. From day 3 post-infection, an enumeration of parasites in blood smears was conducted until day 10 post-infection.

P. yoelii sporozoites [4] = assay: Invasion assay, second experiment: infecting hepatocytes with sporozoites in the presence of MN, EEF count; format: cell-based; details: all concentrations (50 pM, 1 μM, 10 μM) present for 3 h during infection, then 45 h culture
Experimental: The second experiment consisted in infecting hepatocytes with sporozoites in the presence of MN at 50 pM, 1 μM, or 10 μM. After 3 h of incubation, MN was eliminated and the cultures were maintained 45 h at 37° C. in 5% CO2.
The cultures were stained and the quantity of exo-erythrocytic forms (EEF) was determined microscopically.

[5] = test system: P. yoelii oocysts in Anopheles stephensi; assay: Transmission to mosquito: oocysts in Anopheles stephensi midguts fed on treated mice; format: in vivo; details: Anopheles stephensi fed 2 hours on MN treated mice; 30 midguts dissected 8 days later
Experimental: The mice of the MN treated group and the control group of Example 3 were anesthetized and placed for 2 hours over a cage with 100 female laboratory-bred Anopheles stephensi. Oocysts were enumerated in 30 mosquito midguts dissected 8 days later.

P. yoelii sporozoites [6] = assay: Sporozoite migration assay (HepG2CD81 cells, FITC-dextran, flow cytometry); format: cell-based; details: all concentrations (5 μM, 5 nM and 5 picomolar); 2 h at 37° C.; vs untreated sporozoites
Experimental: P. yoelii sporozoites treated with three concentrations (5 μM, 5 nM and 5 picomolar) of MN were incubated with HepG2CD81 cells for 2 h at 37° C. in the continued presence of with 0.5 mg/ml FITC-dextran. After 2 h at 37° C., cells were washed and fixed with PBS-formaldehyde 1%, and FITC-positive cells were counted by flow cytometry.

P. yoelii sporozoites [7] = assay: Maturation assay: hepatocyte cultures infected with sporozoites, then treated; format: cell-based; details: all concentrations (50 pM, 1 μM, 10 μM) for 45 h after 3 h infection and washing
Experimental: The experiment consisted in infecting hepatocytes cultures with P. yoelii sporozoites for 3 h, washing the cultures and then treating them with MN 50 pM, 1 μM, or 10 μM, for 45 h at 37° C.

Compound: CO[C@@H]1C[C@@H](C[C@H]2CC[C@H](C)[C@H]([C@@H](C)C(=O)O)O2)O[C@]2(O[C@](C)([C@H]3CC[C@@](C)([C@@H]4O[C@@H]([C@H]5O[C@@](O)(CO)[C@H](C)C[C@@H]5C)C[C@@H]4C)O3)C[C@H]2C)[C@@H]1C [NG, Nigericin sodium salt, reference compound]
- reduction of parasitemia with respect to controls ([1]; 35 mg/kg/day IP daily for 3 days (treated)): 51%
- reduction of parasitemia with respect to controls ([1]; 35 mg/kg/day IP daily for 4 days (pretreated)): 71%

Compound: CC[C@@]1([C@H]2O[C@H]([C@H]3O[C@@](O)(CO)[C@H](C)C[C@@H]3C)C[C@H]2C)CC[C@H]([C@@]2(C)CC[C@]3(C[C@H](O)[C@@H](C)[C@@H]([C@H](C)[C@H](OC)[C@@H](C)C(=O)[O-])O3)O2)O1.[Na+] [MN, Monensin A sodium salt]
- inhibition on parasite development (liver parasite burden, 18S rRNA/β-actin) [2]: 96.8%
- inhibition of parasite development (EEF) (P. yoelii sporozoites [3]; sporozoites pre-treated 1 h with 5 pM): 96.26%
- inhibition of parasite development (EEF) (P. yoelii sporozoites [3]; sporozoites pre-treated 1 h with 0.5 μM): complete inhibition
- inhibition of parasite development (EEF) (P. yoelii sporozoites [3]; sporozoites pre-treated 1 h with 5 μM): complete inhibition
- parasitemia course (P. yoelii blood stage; 4×10^5 infected red blood cells IP, blood smears day 3-10): Increasing parasitemia, although delayed by comparison with the control group
- male gametocytes in blood (P. yoelii blood stage; vs untreated group): no male gametocytes were observed
- protection from erythrocytic infection (mice with no parasite in blood smears) ([1]; 25 mg/kg/day IP daily for 3 days (treated, from day 0)): 100 % of the mice
- protection from erythrocytic infection (mice with no parasite in blood smears) ([1]; 25 mg/kg/day IP daily for 4 days (pre-treated, from day -1)): 100 % of the mice
- inhibition of parasite development (EEF) (P. yoelii sporozoites [4]): totally inhibited parasite development
- oocysts in mosquito midguts [5]: No oocyst could be observed
- inhibition of sporozoites migration (P. yoelii sporozoites [6]): 93%
- inhibition of parasite development (P. yoelii sporozoites [7]): completely inhibited parasite development
